From US20250019369A1, “N-(4-aminocyclohexyl)pyrimidine-4-carboxamide derivatives as CD38 inhibitors” (Cerevance, Inc., priority 2021, published 2025)
Like-named read-outs stand apart in the source and are kept apart here.

Columns and labels:
Recombinant mouse CD38 = Recombinant mouse CD38 (Mus musculus (Mouse), UniProt P56528); test: Mouse CD38 hydrolase assay (fluorescence, ε-NAD substrate); assay type: biochemical; settings: recombinant mouse CD38 0.4 nM, 12 μM ε-NAD, 30 min preincubation at 25° C., pH 7.4
Chain of Recombinant mouse CD38 (P56528 whole entry): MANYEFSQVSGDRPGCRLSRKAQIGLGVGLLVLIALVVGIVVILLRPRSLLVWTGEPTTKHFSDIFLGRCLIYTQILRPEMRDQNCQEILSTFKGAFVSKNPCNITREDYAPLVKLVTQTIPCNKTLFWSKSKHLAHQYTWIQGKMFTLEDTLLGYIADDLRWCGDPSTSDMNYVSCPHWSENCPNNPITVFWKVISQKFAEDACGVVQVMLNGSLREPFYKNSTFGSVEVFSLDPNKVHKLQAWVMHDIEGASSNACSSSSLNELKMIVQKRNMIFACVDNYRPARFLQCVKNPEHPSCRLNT
Description: (§1) The ability of test compounds to inhibit mouse CD38 hydrolase activity was measured in a fluorescence-based assay using non-physiological NAD^+ substrate analogue 1,N^6-etheno NAD^+ (ε-NAD). Recombinant mouse CD38 (0.4 nM) was preincubated with test compounds in 384-well black microplates for 30 min at 25° C. in PBS (—Ca^2+/Mg^2+) containing 0.005% BSA (pH 7.4). CD38 hydrolase activity was initiated by addition of 12 μM ε-NAD, which yields the fluorescent product 1,N^6-etheno ADP-ribose. Formation of fluorescent product was followed using ClarioStar Plus (BMG) microplate reader by reading fluorescence (excitation λ=300 nm; emission λ=410 nm) at two time points, one immediately after substrate addition (t=0) and one at 6 min (t=6).
(§2) Data was analysed by subtracting the values detected at t=0 from t=6 to correct for variation in baseline fluorescence, and fluorescence values were converted to percent inhibition using the average of high signal (CD38 and ε-NAD) and low signal (CD38 and ε-NAD in the presence of a tool CD38 inhibitor) control wells. IC50 values were determined from a 10-point, half log concentration response curve with a four-parameter logistic equation.

Recombinant human CD38 = Recombinant human CD38 (Homo sapiens (Human), UniProt P28907); test: Human CD38 hydrolase assay (fluorescence, ε-NAD substrate); assay type: biochemical; settings: recombinant human CD38 0.8 nM, 4 μM ε-NAD, 30 min preincubation at 25° C., pH 7.4
Chain of Recombinant human CD38 (P28907 whole entry): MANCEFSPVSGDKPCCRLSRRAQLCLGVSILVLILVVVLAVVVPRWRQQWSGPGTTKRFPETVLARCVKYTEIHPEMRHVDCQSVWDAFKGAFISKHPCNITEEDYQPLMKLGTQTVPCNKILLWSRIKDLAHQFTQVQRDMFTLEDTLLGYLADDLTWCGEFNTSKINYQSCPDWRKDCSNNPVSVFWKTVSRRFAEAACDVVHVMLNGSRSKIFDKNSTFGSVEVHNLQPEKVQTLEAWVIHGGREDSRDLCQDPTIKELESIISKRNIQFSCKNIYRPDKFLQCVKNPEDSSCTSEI
Description: as §1, with “inhibit human” for “inhibit mouse”, “Recombinant human” for “Recombinant mouse”, “CD38 (0.8” for “CD38 (0.4”, “of 4” for “of 12”, “at 10” for “at 6”, “min (t=10).” for “min (t=6).”
as §2, with “t=10” for “t=6”, “fluorescence. Fluorescence” for “fluorescence, and fluorescence”

[1] = PK brain permeability in C57BL/6 mice after single oral gavage; assay type: in vivo; settings: 2 hours post dose; for concentration at 2 h / Kpu,u (unbound brain/plasma partition coefficient) at 2 h: male, C57BL/6, mouse; for concentration at 2 h: po, 10 mg/kg; for Kpu,u (unbound brain/plasma partition coefficient) at 2 h / brain permeability (in words): oral 10 mg/kg; for Kpu,u (unbound brain/plasma partition coefficient) at 2 h: read-out: Kpu,u (unbound partitioning coefficient, Cb,u/Cp,u); for brain permeability (in words): comment on Table 3
Description: The distribution of compounds into the brain in vivo was determined in C57BL/6 mice following single oral (po) gavage administration.
Test compounds were formulated at 1 mg/mL in 0.5% HPMC E4 M, 0.2% Tween 80 in water to achieve solutions or homogenous suspensions suitable for po administration.
Formulations were administered to 3 male C57BL/6 mice at a volume of 10 mL/kg resulting in a dose level of 10 mg/kg. Blood samples were collected at 1 and 2 hours post dose into tubes containing K2EDTA as anticoagulant, processed to plasma and stored at −60° C. or lower until LC-MS/MS analysis. Brains were harvested 2 hours post dose, rinsed with saline, dried, weighed and homogenised under ice cold conditions. Brain homogenates were stored at −60° C. or lower until LC-MS/MS analysis.
Dose formulation concentrations were verified using a LC-UV or LC-MS/MS method. Test compound concentrations in plasma and brain homogenate were quantitatively determined using LC-MS/MS methods developed in individual matrices against calibration curves with QC samples included and acceptance criteria as per CRO SOPs. Concentrations in brain homogenate were corrected for the dilution factor used to prepare the homogenate to give concentrations in whole brain tissue.
Plasma and brain concentration versus time data were reported and plotted in excel. The brain to plasma ratio at 2 hours post dose was calculated for each animal using the following equation:
Brain:plasma=brain concentration (ng/g) at 2 h/plasma concentration (ng/mL) at 2 h
As only unbound test compound is available to exert an effect on the target, unbound plasma (Cp,u) and unbound brain (Cb,u) concentrations were calculated by correcting the total concentrations for the unbound fraction in plasma (fu,p) or brain (fu,b) determined from in vitro plasma protein or brain tissue binding assays using the following equations: […]
The unbound partitioning coefficient (Kpu,u) was then calculated based on the ratio of Cb,u to Cp,u using the following equation: […]
In these studies, mice were orally administrated a 10 mg/kg dose and sacrificed 2 hours post dose and tissue samples (brain homogenate and plasma) were analyzed subsequently as described above.

[2] = brain, read-out: total brain conc.
[3] = brain, total corrected for unbound fraction in brain, read-out: free brain conc.
[4] = plasma, read-out: total plasma conc.
[5] = plasma, total corrected for unbound fraction in plasma, read-out: free plasma conc.

IC50 (Recombinant mouse CD38) | IC50 (Recombinant human CD38) | concentration at 2 h [1, 2] | concentration at 2 h [1, 3] | Kpu,u (unbound brain/plasma partition coefficient) at 2 h [1] | concentration at 2 h [1, 4] | concentration at 2 h [1, 5] | brain permeability (in words) [1] | SMILES
≤ 40 nM | ≤ 40 nM | 5510 nM | 3800 nM | 1.33 | 21900 nM | 2850 nM | – | Cc1cc(C(=O)N[C@H]2CC[C@H](NCC(F)(F)F)CC2)nc(-n2ccnc2)n1 [Example 1, 2-(1H-imidazol-1-yl)-6-methyl-N-((1r,4r)-4-((2,2,2-trifluoroethyl)amino)cyclohexyl)pyrimidine-4-carboxamide]
≤ 40 nM | ≤ 40 nM | 1660 nM | 224 nM | 0.48 | 6390 nM | 469 nM | – | O=C(N[C@H]1CC[C@H](NCC(F)F)CC1)c1cc(C2CC2)nc(-n2ccnc2)n1 [Example 3, 6-cyclopropyl-N-((1r,4r)-4-((2,2-difluoroethyl)amino)cyclohexyl)-2-(1H-imidazol-1-yl)pyrimidine-4-carboxamide]
≤ 40 nM | ≤ 40 nM | 5200 nM | 507 nM | 0.32 | 15100 nM | 1610 nM | excellent brain permeability | Cc1cc(C(=O)N[C@H]2CC[C@H](N3CCC(F)(F)C3)CC2)nc(-n2ccnc2)n1 [Example 10, N-((1r,4r)-4-(3,3-difluoropyrrolidin-1-yl)cyclohexyl)-2-(1H-imidazol-1-yl)-6-methyl-pyrimidine-4-carboxamide]
≤ 40 nM | ≤ 100 nM | 5470 nM | 197 nM | 0.4 | 11900 nM | 494 nM | excellent brain permeability | Cc1cc(C(=O)N[C@H]2CC[C@H](NC(C)(C)C(F)(F)F)CC2)nc(-n2ccnc2)n1 [Example 21, 2-(1H-imidazol-1-yl)-6-methyl-N-((1r,4r)-4-((1,1,1-trifluoro-2-methylpropan-2-yl)amino)cyclohexyl)pyrimidine-4-carboxamide]

SMILES | IC50 (Recombinant mouse CD38) | IC50 (Recombinant human CD38) | concentration at 2 h [1, 2] | concentration at 2 h [1, 3] | Kpu,u (unbound brain/plasma partition coefficient) at 2 h [1] | concentration at 2 h [1, 4] | concentration at 2 h [1, 5] | brain permeability (in words) [1]
Cc1cc(C(=O)N[C@H]2CC[C@H](NCC(F)F)CC2)nc(-n2ccnc2)n1 [Example 2, N-((1r,4r)-4-((2,2-difluoroethyl)amino)cyclohexyl)-2-(1H-imidazol-1-yl)-6-methyl-pyrimidine-4-carboxamide] | ≤ 40 nM | ≤ 40 nM | 2190 nM | 1390 nM | 0.65 | 9370 nM | 2130 nM | –
